Data: paper PMC3961306, “Comparison of the Cancer Gene Targeting and Biochemical Selectivities of All Targeted Kinase Inhibitors Approved for Clinical Use” (PLoS ONE, 2014)

Columns and labels:
Experiment in all cases: Kinase profiling in a biochemical assay panel (mobility shift assays and ELISA), %-inhibition at 1 μM; selectivity entropy
[1] = target: T1, panel of more than 300 wild-type and mutant kinases (313 kinase panel) (Homo sapiens, UniProt Q96KB5)
T1 sequence (Q96KB5 1-322): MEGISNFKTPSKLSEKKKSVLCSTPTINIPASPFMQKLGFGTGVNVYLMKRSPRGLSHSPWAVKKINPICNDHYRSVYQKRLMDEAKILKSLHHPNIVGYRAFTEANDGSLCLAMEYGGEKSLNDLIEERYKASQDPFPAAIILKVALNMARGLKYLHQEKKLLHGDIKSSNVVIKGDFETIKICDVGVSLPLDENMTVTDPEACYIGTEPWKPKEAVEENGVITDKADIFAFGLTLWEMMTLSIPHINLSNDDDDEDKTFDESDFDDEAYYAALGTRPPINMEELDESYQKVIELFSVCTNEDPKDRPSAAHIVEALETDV

[2] = target: T2, panel of more than 300 wild-type and mutant kinases (313 kinase panel) (Homo sapiens, UniProt Q8TDC3)
T2 sequence (Q8TDC3 1-778): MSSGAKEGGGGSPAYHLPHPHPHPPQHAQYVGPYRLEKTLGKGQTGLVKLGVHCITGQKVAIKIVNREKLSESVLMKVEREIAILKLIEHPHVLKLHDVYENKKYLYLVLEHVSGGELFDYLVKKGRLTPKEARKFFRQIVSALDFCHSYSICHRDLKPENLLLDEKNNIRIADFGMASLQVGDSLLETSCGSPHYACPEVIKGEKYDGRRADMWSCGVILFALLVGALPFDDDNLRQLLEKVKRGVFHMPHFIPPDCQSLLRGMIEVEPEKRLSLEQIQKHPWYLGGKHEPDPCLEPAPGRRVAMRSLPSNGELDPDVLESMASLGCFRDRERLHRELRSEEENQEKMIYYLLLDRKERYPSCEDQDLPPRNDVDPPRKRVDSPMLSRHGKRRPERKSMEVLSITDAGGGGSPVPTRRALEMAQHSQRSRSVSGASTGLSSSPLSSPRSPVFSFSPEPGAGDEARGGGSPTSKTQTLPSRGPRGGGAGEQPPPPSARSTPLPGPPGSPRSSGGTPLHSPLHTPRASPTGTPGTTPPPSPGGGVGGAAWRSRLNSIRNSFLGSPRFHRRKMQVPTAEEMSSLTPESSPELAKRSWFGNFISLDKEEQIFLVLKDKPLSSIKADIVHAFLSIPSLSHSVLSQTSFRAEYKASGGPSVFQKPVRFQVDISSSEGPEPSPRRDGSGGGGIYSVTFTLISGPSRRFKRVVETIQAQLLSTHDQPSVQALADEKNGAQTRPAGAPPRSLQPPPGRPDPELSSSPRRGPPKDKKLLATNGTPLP

[3] = target: T3, panel of more than 300 wild-type and mutant kinases (313 kinase panel) (Homo sapiens, UniProt Q96PY6)
T3 sequence (Q96PY6 1-1258): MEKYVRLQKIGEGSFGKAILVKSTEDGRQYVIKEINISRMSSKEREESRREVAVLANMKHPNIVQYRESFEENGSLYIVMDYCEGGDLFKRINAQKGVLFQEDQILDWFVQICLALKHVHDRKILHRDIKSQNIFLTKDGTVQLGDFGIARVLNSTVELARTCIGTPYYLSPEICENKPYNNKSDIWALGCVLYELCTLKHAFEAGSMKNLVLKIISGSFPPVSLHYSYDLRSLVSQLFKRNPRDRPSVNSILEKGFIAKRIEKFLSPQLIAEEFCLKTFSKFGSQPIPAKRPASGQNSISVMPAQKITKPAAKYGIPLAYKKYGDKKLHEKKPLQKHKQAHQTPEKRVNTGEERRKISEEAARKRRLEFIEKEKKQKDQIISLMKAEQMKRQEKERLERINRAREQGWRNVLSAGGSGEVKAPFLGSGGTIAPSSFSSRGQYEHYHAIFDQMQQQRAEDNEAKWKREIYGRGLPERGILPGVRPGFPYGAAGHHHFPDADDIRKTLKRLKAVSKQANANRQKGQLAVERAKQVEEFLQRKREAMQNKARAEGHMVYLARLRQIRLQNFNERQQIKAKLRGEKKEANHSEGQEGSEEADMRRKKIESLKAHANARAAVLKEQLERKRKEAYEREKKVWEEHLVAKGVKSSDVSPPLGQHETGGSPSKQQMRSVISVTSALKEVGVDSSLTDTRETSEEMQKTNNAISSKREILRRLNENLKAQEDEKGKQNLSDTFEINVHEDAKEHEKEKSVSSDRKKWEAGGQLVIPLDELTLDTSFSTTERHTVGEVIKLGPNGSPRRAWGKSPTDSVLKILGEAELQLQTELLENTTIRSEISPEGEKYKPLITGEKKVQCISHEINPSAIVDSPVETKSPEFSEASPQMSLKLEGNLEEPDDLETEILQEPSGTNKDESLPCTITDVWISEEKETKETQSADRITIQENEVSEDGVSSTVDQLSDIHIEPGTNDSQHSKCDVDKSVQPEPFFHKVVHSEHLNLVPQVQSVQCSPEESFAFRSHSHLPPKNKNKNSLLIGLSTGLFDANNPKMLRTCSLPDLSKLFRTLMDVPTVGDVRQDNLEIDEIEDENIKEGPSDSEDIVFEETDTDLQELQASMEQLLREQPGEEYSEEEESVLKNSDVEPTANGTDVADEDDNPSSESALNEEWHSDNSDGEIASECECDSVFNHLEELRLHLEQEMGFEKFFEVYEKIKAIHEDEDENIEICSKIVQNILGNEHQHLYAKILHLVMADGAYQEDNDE

SMILES | %-inhibition of PBK ([1]; kinase PBK, 1 μM) | %-inhibition, BRSK1 ([2]; kinase BRSK1, 1 μM compound) | %-inhibition of NEK1 ([3]; kinase NEK1, 1 μM) | %-inhibition of NEK1 ([3]; 1 µM) | %-inhibition, BRSK1 ([2]; 1 µM) | %-inhibition of PBK ([1]; 1 µM)
CN(C)C/C=C/C(=O)Nc1cc2c(Nc3ccc(F)c(Cl)c3)ncnc2cc1O[C@H]1CCOC1 [afatinib] | -3% |  |  |  |  | 
COc1cc(Nc2c(C#N)cnc3cc(OCCCN4CCN(C)CC4)c(OC)cc23)c(Cl)cc1Cl [bosutinib] | -24% | -11% |  |  |  | 
COc1cc2nccc(Oc3ccc(NC(=O)C4(C(=O)Nc5ccc(F)cc5)CC4)cc3)c2cc1OC [cabozantinib] | -4.29% | 3.24% | -4.23% |  |  | 
C[C@@H](Oc1cc(-c2cnn(C3CCNCC3)c2)cnc1N)c1c(Cl)ccc(F)c1Cl [crizotinib] | -14% | 12% | 2.24% |  |  | 
CC(C)(C)c1nc(-c2cccc(NS(=O)(=O)c3c(F)cccc3F)c2F)c(-c2ccnc(N)n2)s1 [dabrafenib] | 12% | 37% | 24% |  |  | 
C#Cc1cccc(Nc2ncnc3cc(OCCOC)c(OCCOC)cc23)c1 [erlotinib] |  |  |  | 5% | 5.68% | 4.3%
CO[C@H]1C[C@@H]2CC[C@@H](C)[C@@](O)(O2)C(=O)C(=O)N2CCCC[C@H]2C(=O)O[C@H]([C@H](C)C[C@@H]2CC[C@@H](OCCO)[C@H](OC)C2)CC(=O)[C@H](C)/C=C(\C)[C@@H](O)[C@@H](OC)C(=O)[C@H](C)C[C@H](C)/C=C/C=C/C=C/1C [everolimus] | -10% | -9% | -7% |  |  | 
O=S(=O)(c1cccc2cnccc12)N1CCCNCC1 [fasudil] | -2.33% | -0.211% | -6.36% |  |  | 
CS(=O)(=O)CCNCc1ccc(-c2ccc3ncnc(Nc4ccc(OCc5cccc(F)c5)c(Cl)c4)c3c2)o1 [lapatinib] | 6% | 2% |  | 1.5% |  | 
Cc1cn(-c2cc(NC(=O)c3ccc(C)c(Nc4nccc(-c5cccnc5)n4)c3)cc(C(F)(F)F)c2)cn1 [nilotinib] | -8% | 0.801% | -23% |  |  | 
Cc1ccc(Nc2nccc(N(C)c3ccc4c(C)n(C)nc4c3)n2)cc1S(N)(=O)=O [pazopanib] | -5% | -1.05% | 2.41% |  |  | 
Cc1ccc(C(=O)Nc2ccc(CN3CCN(C)CC3)c(C(F)(F)F)c2)cc1C#Cc1cnc2cccnn12 [ponatinib] | -14% | -8% | 78% |  |  | 
CNC(=O)c1cc(Oc2ccc(NC(=O)Nc3ccc(Cl)c(C(F)(F)F)c3)c(F)c2)ccn1 [regorafenib] | -29% | -17% | -7% |  |  | 
N#CC[C@H](C1CCCC1)n1cc(-c2ncnc3[nH]ccc23)cn1 [ruxolitinib] | -19% | -6.38% | -4% |  |  | 
CO[C@H]1C[C@@H]2CC[C@@H](C)[C@@](O)(O2)C(=O)C(=O)N2CCCC[C@H]2C(=O)O[C@H]([C@H](C)C[C@@H]2CC[C@@H](OC(=O)C(C)(CO)CO)[C@H](OC)C2)CC(=O)[C@H](C)/C=C(\C)[C@@H](O)[C@@H](OC)C(=O)[C@H](C)C[C@H](C)/C=C/C=C/C=C/1C [temsirolimus] | -9% | -14% | -8% |  |  | 
CC(=O)Nc1cccc(-n2c(=O)n(C3CC3)c(=O)c3c(Nc4ccc(I)cc4F)n(C)c(=O)c(C)c32)c1 [trametinib] | -3.79% | -6% | -5% |  |  | 
COc1cc2c(Nc3ccc(Br)cc3F)ncnc2cc1OCC1CCN(C)CC1 [vandetanib] | -21% | -9% | -8% |  |  | 
CCCS(=O)(=O)Nc1ccc(F)c(C(=O)c2c[nH]c3ncc(-c4ccc(Cl)cc4)cc23)c1F [vemurafenib] | -12% | -8% | -2.74% |  |  | 
